Assay results taken from patent publication US4160829A, “Antibacterial 1,2,4-oxadiazolylacetamido cephalosporins” (Gist-Brocades N.V., priority 1972, dated 1979).
≈ marks a conversion by molar mass, not a printed value. Like-named read-outs stand apart in the source and are kept apart here.

What was measured:
Bac.Subt.ATCC 6633 = test: agar serial dilution test; format: cell-based, Bacillus subtilis; conditions: Bacillus subtilis, ATCC6633, 24 h, read-out: minimal inhibitory concentration (MIC)
Staph.aureus A 321 = test: agar serial dilution test; format: cell-based, Staphylococcus aureus; conditions: Staphylococcus aureus, A321, 24 h, read-out: minimal inhibitory concentration (MIC)
Staph.aureus A 2000 = test: agar serial dilution test; format: cell-based, Staphylococcus aureus; conditions: Staphylococcus aureus, A2000, 24 h, read-out: minimal inhibitory concentration (MIC)
Strep.haem. A 266 = test: agar serial dilution test; format: cell-based, Streptococcus haemolyticus; conditions: Streptococcus, read-out: minimal inhibitory concentration (MIC)
Strep. faec. L 80 = test: agar serial dilution test; format: cell-based, Streptococcus faecalis; conditions: Enterococcus faecalis, read-out: minimal inhibitory concentration (MIC)
Dipl.pneum. L 54 = test: agar serial dilution test; format: cell-based, Diplococcus pneumoniae; conditions: Streptococcus pneumoniae, read-out: minimal inhibitory concentration (MIC)
Bruc.melit. A 488 = test: microbe, parasite or virus in culture; format: cell-based; conditions: Brucella melitensis, 24 h, read-out: minimal inhibitory concentration (MIC)
Past.multo. A 723 = test: agar serial dilution test; format: cell-based, Pasteurella multocida; conditions: Pasteurella multocida, read-out: minimal inhibitory concentration (MIC)
Kleb.pneum. A 809 = test: agar serial dilution test; format: cell-based, Klebsiella pneumoniae; conditions: Klebsiella pneumoniae, read-out: minimal inhibitory concentration (MIC)
Salm.dubl. P 43 = test: agar serial dilution test; format: cell-based, Salmonella dublin; conditions: Salmonella enterica, read-out: minimal inhibitory concentration (MIC)
Esch.coli U 20 = test: agar serial dilution test; format: cell-based, Escherichia coli; conditions: Escherichia coli
Shig.equir. T 3 = test: agar serial dilution test; format: cell-based; conditions: 37° C., read-out: minimal inhibitory concentration (MIC)
Pseud.aerug. H 10 = test: agar serial dilution test; format: cell-based; conditions: read-out: minimal inhibitory concentration (MIC)
Pseud.aerug. 2396 = test: agar serial dilution test; format: cell-based; conditions: read-out: minimal inhibitory concentration (MIC)
[1] = test system: Pseud.aerug. Wyeth A 1058; test: agar serial dilution test; format: cell-based; conditions: read-out: minimal inhibitory concentration (MIC)
Prot.rettg. A 821 = test: agar serial dilution test; format: cell-based, Proteus rettgeri; conditions: Providencia rettgeri, 24 h, read-out: minimal inhibitory concentration (MIC)
Prot.mirab. H 3 = test: agar serial dilution test; format: cell-based, Proteus mirabilis; conditions: Proteus mirabilis
Prot.mirab. L 93 = test: agar serial dilution test; format: cell-based, Proteus mirabilis; conditions: Proteus mirabilis
Prot.mirab. A 1200 = test: agar serial dilution test; format: cell-based, Proteus mirabilis; conditions: Proteus mirabilis, 24 h, agar serial dilution, 24 hours, 37° C.; read-out: minimal inhibitory concentration (MIC)
Prot.morg. 2241 = test: agar serial dilution test; format: cell-based; conditions: 24 h, read-out: minimal inhibitory concentration (MIC)
Staph.aureus A 355 [2] = test: micro serial dilution test; format: cell-based, Staphylococcus aureus; conditions: Staphylococcus aureus, A355; micro serial dilution (in brackets), about 18 hours, 30° C. or 37° C.; penicillinase-producing strain; read-out: minimal inhibitory concentration (MIC)
Excerpt: Two drops of a stock solution of the test compound (antibiotic) in a known concentration were brought into the first hole of a test plate with 9 numbered holes with a sterile Pasteur pipette. After rinsing this pipette three times with a physiological NaCl-solution, two drops of a stock solution of the test organism in a culture medium were brought in all the holes except for hole 8. In the first hole, the solution of the tested compound had been half diluted, then by stirring the liquid in the first hole and adding two drops of this mixture to the second hole and so on until hole 8, dilutions of the test compound solution were obtained in geometrical progression. The hole 9 contained no antibiotic and served for checking the growth of the testogranism in a blank medium. The test plate was incubated at 30° C. or 37° C. for about 18 hours.
^1 Penicillinase-producing strain

Staph.aureus A 2001 [3] = test: micro serial dilution test; format: cell-based, Staphylococcus aureus; conditions: Staphylococcus aureus, A2001, 18 h, micro serial dilution (in brackets), about 18 hours, 30° C. or 37° C.; read-out: minimal inhibitory concentration (MIC)
Haem.infl. A 1030 = test: micro serial dilution test; format: cell-based; conditions: 18 h, read-out: minimal inhibitory concentration (MIC)
Staph.aureus A 355 [4] = test: agar serial dilution test; conditions: Staphylococcus aureus, A355, 24 h
Staph.aureus A 2001 [5] = test: agar serial dilution test; format: cell-based, Staphylococcus aureus; conditions: Staphylococcus aureus, A2001, 24 h, agar serial dilution, 24 hours, 37° C.; read-out: minimal inhibitory concentration (MIC)
Salm.typh. R 127 = test: agar serial dilution test; format: cell-based; conditions: 24 h, 37° C., read-out: minimal inhibitory concentration (MIC)
[6] = agar serial dilution, 24 hours, 37° C.
[7] = U20, agar serial dilution, 24 hours, 37° C., read-out: minimal inhibitory concentration (MIC)
[8] = agar serial dilution, 24 hours, 37° C., read-out: minimal inhibitory concentration (MIC)
[9] = micro serial dilution (in brackets), about 18 hours, 30° C. or 37° C.
[10] = read-out: minimal inhibitory concentration (MIC), agar serial dilution, 24 hours, 37° C., penicillinase-producing strain
[11] = 24 h, read-out: minimal inhibitory concentration (MIC), agar serial dilution, 24 hours, 37° C.

Row | Compound | MIC (Bac.Subt.ATCC 6633; [6]) [µg/mL] | MIC (Staph.aureus A 321; [6]) [µg/mL] | MIC (Staph.aureus A 2000; [6]) [µg/mL] | MIC (Strep.haem. A 266; [6]) [µg/mL] | MIC (Strep. faec. L 80; [6]) [µg/mL] | MIC (Dipl.pneum. L 54; [6]) [µg/mL] | MIC (Bruc.melit. A 488) [µg/mL] | MIC (Past.multo. A 723; [6]) [µg/mL] | MIC (Kleb.pneum. A 809; [6]) [µg/mL] | MIC (Salm.dubl. P 43; [6]) [µg/mL] | MIC (Esch.coli U 20; [7]) [µg/mL] | MIC (Shig.equir. T 3; 24 h) [µg/mL] | MIC (Pseud.aerug. H 10; [6]) [µg/mL] | MIC [1, 6] [µg/mL] | MIC (Prot.rettg. A 821; [6]) [µg/mL] | MIC (Prot.mirab. H 3; [8]) [µg/mL] | MIC (Prot.mirab. L 93; [8]) [µg/mL] | MIC (Prot.mirab. A 1200) [µg/mL] | MIC (Prot.morg. 2241; [6]) [µg/mL] | MIC (Haem.infl. A 1030; [9]) [µg/mL] | other results
1 | CC(=O)OCC1=C(C(=O)O)N2C(=O)[C@@H](NC(=O)Cc3nc(-c4c(C)cc(C)cc4C)no3)[C@H]2SC1 [Example 9, 7-{[3-(2,4,6-trimethylphenyl)-1,2,4-oxadiazol-5-yl]-acetamido}-cephalosporanic acid] | 0.06 (≈ 0.12 µM) | 0.12 (≈ 0.24 µM) | 1 (≈ 2 µM) | 0.03 (≈ 0.0599 µM) | 6 (≈ 12 µM) | 0.25 (≈ 0.499 µM) | 100 (≈ 200 µM) | 50 (≈ 99.9 µM) | 50 (≈ 99.9 µM) | > 100 | > 100 | > 100 | > 100 | > 100 | > 100 | > 100 | > 100 | > 100 | > 100 | 125 (≈ 250 µM) | MIC (Pseud.aerug. 2396; [6]): > 100 µg/mL; MIC (Staph.aureus A 355 [2]): 0.15 µg/mL (≈ 0.3 µM); MIC (Staph.aureus A 2001 [3]): 0.11 µg/mL (≈ 0.22 µM); MIC (Staph.aureus A 355 [4]; [10]): 1 µg/mL (≈ 2 µM)
2 | Cc1nc(CC(=O)N[C@@H]2C(=O)N3[C@@H]2SC(C)(C)[C@@H]3C(=O)O)no1 [Example 13, Sodium 6-[(5-methyl-1,2,4-oxadiazol-3-yl)-acetamido]-penicillanate] | 0.03 | 0.12 | 1.5 | 0.03 | 6 | 1 | 3 | 1 | > 100 | 3 | 50 | 3 | > 100 | > 100 | 6 | 100 | 3 | 25 | 100 | 125 | MIC (Staph.aureus A 2001 [5]): 1.5 µg/mL; MIC (Salm.typh. R 127): 25 µg/mL; MIC (Staph.aureus A 355 [4]; [10]): 10 µg/mL
3 | CC1=C(C(=O)O)N2C(=O)[C@@H](NC(=O)Cc3ccccc3)[C@H]2SC1 [benzyldesacetoxy ceph., reference compound] | – | – | – | – | – | – | 100 (≈ 301 µM) | – | – | – | – | – | – | – | – | – | – | – | – | – | MIC (Bac.Subt.ATCC 6633): 0.5 µg/mL (≈ 1.5 µM); MIC (Staph.aureus A 321): 1 µg/mL (≈ 3.01 µM); MIC (Staph.aureus A 2000): 12.5 µg/mL (≈ 37.6 µM); MIC (Strep.haem. A 266; 24 h): 1 µg/mL (≈ 3.01 µM); MIC (Strep. faec. L 80; 24 h): > 100 µg/mL; MIC (Dipl.pneum. L 54; 24 h): 3 µg/mL (≈ 9.03 µM); MIC (Past.multo. A 723; 24 h): 25 µg/mL (≈ 75.2 µM); MIC (Kleb.pneum. A 809; 24 h): 100 µg/mL (≈ 301 µM); MIC (Salm.dubl. P 43; 24 h): > 100 µg/mL; MIC (Esch.coli U 20; U20, 24 h, read-out: minimal inhibitory concentration (MIC), agar serial dilution, 24 hours, 37° C.): > 100 µg/mL; MIC (Shig.equir. T 3; 24 hours): 100 µg/mL (≈ 301 µM); MIC (Pseud.aerug. H 10; 24 h): > 100 µg/mL; MIC (Pseud.aerug. 2396; 24 h): > 100 µg/mL; MIC ([1]; 24 h): > 100 µg/mL; MIC (Prot.rettg. A 821): > 100 µg/mL; MIC (Prot.mirab. H 3; [11]): > 100 µg/mL; MIC (Prot.mirab. L 93; [11]): 50 µg/mL (≈ 150 µM); MIC (Prot.morg. 2241): > 100 µg/mL; MIC (Haem.infl. A 1030): > 125 µg/mL; MIC (Staph.aureus A 355 [4]; read-out: minimal inhibitory concentration (MIC)): 25 µg/mL (≈ 75.2 µM)
